What was measured:
[1] = test system: α-isomaltosylglucosaccharide-forming enzyme from Bacillus globisporus C9 strain; assay: Specificity of saccharide transferring reaction acceptor, enzyme of Strain C9; type: biochemical; parameters: key: −: no saccharide-transferred product was detected through transferring reaction to acceptor; ±: a saccharide-transferred product was detected in an amount of less than one percent through transfer reaction to acceptor; +: a saccharide-transferred product was detected in an amount of at least one percent but less than ten percent through transferring reaction to acceptor; ++: a saccharide-transferred product was detected in an amount of at least ten percent through transferring reaction to acceptor; conditions: 1.6% acceptor, 4% PINE-DEX #100 as donor, one unit/g donor, 30° C., pH 6.0, 24 hours; GLC or HPLC
Procedure: (§1) Using different saccharides, it was tested whether the saccharides were used as saccharide transferring reaction acceptors for the α-isomaltosylglucosaccharide-forming enzyme. A 1.6% solution, as a solution of saccharide transferring reaction acceptor, of D-glucose, D-xylose, L-xylose, D-galactose, D-fructose, D-mannose, D-arabinose, D-fucose, L-sorbose, L-rhamnose, methyl-α-glucopyranoside (methyl-α-glucose), methyl-β-glucopyranoside ([…]), N-acetyl-glucosamine, sorbitol, α,α-trehalose, isomaltose, isomaltotriose, cellobiose, gentibiose, maltitol, lactose, sucrose, α-cyclodextrin, β-cyclodextrin, or γ-cyclodextrin, was prepared. To each solution with a saccharide concentration was added “PINE-DEX #100”, a partial starch hydrolysate, as a saccharide donor, to give a concentration of 4%, and admixed with one unit/g saccharide donor, d.s.b., of either of purified specimens of α-isomaltosylglucosaccharide-forming enzyme from Bacillus globisporus C9 strain obtained by the method in Experiment 2-1, Bacillus globisporus C11 strain obtained by the method in Experiment 4-1. The resulting mixture solutions were incubated at 30° C. and pH 6.0 except that the enzyme from Arthrobacter globiformis A19 strain was incubated at pH 8.4 for 24 hours. The reaction mixtures of the post-enzymatic reactions were analyzed on gas chromatography (abbreviated as “GLC” hereinafter) for monosaccharides and disaccharides as acceptors, and on HPLC for trisaccharides as acceptors to confirm whether these saccharides could be used as their saccharide transferring reaction acceptors. In the case of performing GLC, the following apparatuses and conditions are used: GLC apparatus, “GC-16A” commercialized by Shimadzu Corporation, Tokyo, Japan; column, a stainless-steel column, 3 mm in diameter and 2 m in length, packed with 2% “SILICONE OV-17/CHROMOSOLV W”, commercialized by GL Sciences Inc., Tokyo, Japan; carrier gas, nitrogen gas at a flow rate of 40 ml/min under temperature conditions of increasing from 160° C. to 320° C. at an increasing temperature rate of 7.5° C./min; and detection, a hydrogen flame ionization detector.
(§2) In the case of HPLC analysis, the apparatuses and conditions used were: HPLC apparatus, “CCPD” commercialized by Tosoh Corporation, Tokyo, Japan; column, “ODS-AQ-303” commercialized by YMC Co., Ltd., Tokyo, Japan; eluent, water at a flow rate of 0.5 ml/min; and detection, a differential refractometer.

[2] = test system: α-isomaltosylglucosaccharide-forming enzyme from Bacillus globisporus C11 strain; assay: Specificity of saccharide transferring reaction acceptor, enzyme of Strain C11; type: biochemical; parameters: key: −: no saccharide-transferred product was detected through transferring reaction to acceptor; ±: a saccharide-transferred product was detected in an amount of less than one percent through transfer reaction to acceptor; +: a saccharide-transferred product was detected in an amount of at least one percent but less than ten percent through transferring reaction to acceptor; ++: a saccharide-transferred product was detected in an amount of at least ten percent through transferring reaction to acceptor; conditions: 1.6% acceptor, 4% PINE-DEX #100 as donor, one unit/g donor, 30° C., pH 6.0, 24 hours; GLC or HPLC
Procedure: as §1, §2

Compound | Product of saccharide transferring reaction, Enzyme of Strain C9 [1] | Product of saccharide transferring reaction, Enzyme of Strain C11 [2]
O=C[C@@H](O)[C@H](O)[C@H](O)CO [D-Arabinose, D-arabinose] | ± (a saccharide-transferred product was detected in an amount of less than one percent through transfer reaction to acceptor) | ± (a saccharide-transferred product was detected in an amount of less than one percent through transfer reaction to acceptor)
O=C(CO)[C@@H](O)[C@H](O)[C@H](O)CO [D-Fructose, D-fructose] | + (a saccharide-transferred product was detected in an amount of at least one percent but less than ten percent through transferring reaction to acceptor) | + (a saccharide-transferred product was detected in an amount of at least one percent but less than ten percent through transferring reaction to acceptor)
C[C@@H](O)[C@H](O)[C@H](O)[C@@H](O)C=O [D-Fucose, D-fucose] | + (a saccharide-transferred product was detected in an amount of at least one percent but less than ten percent through transferring reaction to acceptor) | + (a saccharide-transferred product was detected in an amount of at least one percent but less than ten percent through transferring reaction to acceptor)
O=C[C@H](O)[C@@H](O)[C@@H](O)[C@H](O)CO [D-Galactose, D-galactose] | + (a saccharide-transferred product was detected in an amount of at least one percent but less than ten percent through transferring reaction to acceptor) | + (a saccharide-transferred product was detected in an amount of at least one percent but less than ten percent through transferring reaction to acceptor)
O=C[C@H](O)[C@@H](O)[C@H](O)[C@H](O)CO [D-Glucose, D-glucose] | + (a saccharide-transferred product was detected in an amount of at least one percent but less than ten percent through transferring reaction to acceptor) | + (a saccharide-transferred product was detected in an amount of at least one percent but less than ten percent through transferring reaction to acceptor)
O=C[C@@H](O)[C@@H](O)[C@H](O)[C@H](O)CO [D-Mannose, D-mannose] | − | −
O=C[C@H](O)[C@@H](O)[C@H](O)CO [D-Xylose, D-xylose] | ++ (a saccharide-transferred product was detected in an amount of at least ten percent through transferring reaction to acceptor) | ++ (a saccharide-transferred product was detected in an amount of at least ten percent through transferring reaction to acceptor)
C[C@H](O)[C@H](O)[C@@H](O)[C@@H](O)C=O [L-Rhamnose, L-rhamnose] | − | −
O=C(CO)[C@@H](O)[C@H](O)[C@@H](O)CO [L-Sorbose, L-sorbose] | + (a saccharide-transferred product was detected in an amount of at least one percent but less than ten percent through transferring reaction to acceptor) | + (a saccharide-transferred product was detected in an amount of at least one percent but less than ten percent through transferring reaction to acceptor)
O=C[C@@H](O)[C@H](O)[C@@H](O)CO [L-Xylose, L-xylose] | ++ (a saccharide-transferred product was detected in an amount of at least ten percent through transferring reaction to acceptor) | ++ (a saccharide-transferred product was detected in an amount of at least ten percent through transferring reaction to acceptor)
CO[C@H]1O[C@H](CO)[C@@H](O)[C@H](O)[C@H]1O [Methyl-α-glucopyranoside, methyl-α-glucopyranoside] | ++ (a saccharide-transferred product was detected in an amount of at least ten percent through transferring reaction to acceptor) | ++ (a saccharide-transferred product was detected in an amount of at least ten percent through transferring reaction to acceptor)
CO[C@@H]1O[C@H](CO)[C@@H](O)[C@H](O)[C@H]1O [Methyl-β-glucopyranoside, methyl-β-glucopyranoside] | ++ (a saccharide-transferred product was detected in an amount of at least ten percent through transferring reaction to acceptor) | ++ (a saccharide-transferred product was detected in an amount of at least ten percent through transferring reaction to acceptor)
CC(=O)N[C@H]1C(O)O[C@H](CO)[C@@H](O)[C@@H]1O (stereo partly shown) [N-Acetyl-glucosamine, N-acetyl-glucosamine] | + (a saccharide-transferred product was detected in an amount of at least one percent but less than ten percent through transferring reaction to acceptor) | + (a saccharide-transferred product was detected in an amount of at least one percent but less than ten percent through transferring reaction to acceptor)
OC[C@@H](O)[C@@H](O)[C@H](O)[C@@H](O)CO [Sorbitol, sorbitol] | − | −
OC[C@H]1O[C@@H]2O[C@H]3[C@H](O)[C@@H](O)[C@@H](O[C@H]4[C@H](O)[C@@H](O)[C@@H](O[C@H]5[C@H](O)[C@@H](O)[C@@H](O[C@H]6[C@H](O)[C@@H](O)[C@@H](O[C@H]7[C@H](O)[C@@H](O)[C@@H](O[C@H]1[C@H](O)[C@H]2O)O[C@@H]7CO)O[C@@H]6CO)O[C@@H]5CO)O[C@@H]4CO)O[C@@H]3CO [α-Cyclodextrin, α-cyclodextrin] | − | −
OC[C@H]1O[C@@H]2O[C@H]3[C@H](O)[C@@H](O)[C@@H](O[C@H]4[C@H](O)[C@@H](O)[C@@H](O[C@H]5[C@H](O)[C@@H](O)[C@@H](O[C@H]6[C@H](O)[C@@H](O)[C@@H](O[C@H]7[C@H](O)[C@@H](O)[C@@H](O[C@H]8[C@H](O)[C@@H](O)[C@@H](O[C@H]1[C@H](O)[C@H]2O)O[C@@H]8CO)O[C@@H]7CO)O[C@@H]6CO)O[C@@H]5CO)O[C@@H]4CO)O[C@@H]3CO [β-Cyclodextrin, β-cyclodextrin] | − | −
OC[C@H]1O[C@@H]2O[C@H]3[C@H](O)[C@@H](O)[C@@H](O[C@H]4[C@H](O)[C@@H](O)[C@@H](O[C@H]5[C@H](O)[C@@H](O)[C@@H](O[C@H]6[C@H](O)[C@@H](O)[C@@H](O[C@H]7[C@H](O)[C@@H](O)[C@@H](O[C@H]8[C@H](O)[C@@H](O)[C@@H](O[C@H]9[C@H](O)[C@@H](O)[C@@H](O[C@H]1[C@H](O)[C@H]2O)O[C@@H]9CO)O[C@@H]8CO)O[C@@H]7CO)O[C@@H]6CO)O[C@@H]5CO)O[C@@H]4CO)O[C@@H]3CO [γ-Cyclodextrin, γ-cyclodextrin] | − | −
